Reference: ChEMBL document CHEMBL3826919, “The discovery of novel and selective fatty acid binding protein 4 inhibitors by virtual screening and biological evaluation” (Bioorg Med Chem, 2016)

Tests used:
[1] = target: T1, Fatty acid-binding protein, adipocyte (Homo sapiens, UniProt P15090); assay: Displacement of 1,8-ANS from His6-tagged FABP4 (unknown origin) expressed in Escherichia coli BL21(DE3) cells at 25 uM by fluorescence assay relative to control
Target sequence in this assay (P15090 2-132 limits assumed): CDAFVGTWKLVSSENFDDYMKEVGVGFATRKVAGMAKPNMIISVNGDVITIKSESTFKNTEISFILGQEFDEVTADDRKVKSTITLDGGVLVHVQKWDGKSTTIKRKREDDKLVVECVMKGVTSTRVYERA

[2] = target: T1, Fatty acid-binding protein, adipocyte; assay: Binding affinity to His6-tagged FABP4 (unknown origin) expressed in Escherichia coli BL21(DE3) cells assessed as change in melting temperature at 50 uM after 30 mins by SYPRO orange dye based thermal stability shift assay
Target sequence in this assay (P15090 2-132 limits assumed): as above

[3] = target: T1, Fatty acid-binding protein, adipocyte; assay: Displacement of 1,8-ANS from His6-tagged FABP4 (unknown origin) expressed in Escherichia coli BL21(DE3) cells by fluorescence assay; conditions: read-out: Ki(app)
Target sequence in this assay (P15090 whole entry): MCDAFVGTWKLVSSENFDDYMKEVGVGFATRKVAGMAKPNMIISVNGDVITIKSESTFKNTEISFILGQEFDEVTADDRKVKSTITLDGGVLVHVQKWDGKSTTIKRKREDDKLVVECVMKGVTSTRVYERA

[4] = target: T2, Fatty acid-binding protein, adipocyte (Mus musculus) (UniProt P04117); assay: Inhibition of FABP4 in mouse RAW264.7 cells assessed as inhibition of LPS-induced TNFalpha production after 24 hrs by ELISA; assay type: cell-based
T2 sequence (whole entry): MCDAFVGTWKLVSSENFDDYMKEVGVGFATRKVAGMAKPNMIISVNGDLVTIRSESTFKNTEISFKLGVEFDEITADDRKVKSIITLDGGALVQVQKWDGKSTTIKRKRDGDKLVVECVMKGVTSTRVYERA

[5] = target: T2, Fatty acid-binding protein, adipocyte (Mus musculus); assay: Inhibition of FABP4 in mouse RAW264.7 cells assessed as inhibition of LPS-induced TNFalpha expression after 24 hrs by qPCR method; assay type: cell-based
[6] = target: T2, Fatty acid-binding protein, adipocyte (Mus musculus); assay: Inhibition of FABP4 in mouse RAW264.7 cells assessed as inhibition of LPS-induced IL-6 expression after 24 hrs by qPCR method; assay type: cell-based
[7] = organism: Homo sapiens; assay: Displacement of 1,8-ANS from His6-tagged FABP4 (unknown origin) R106A mutant expressed in Escherichia coli BL21(DE3) cells at 25 uM by fluorescence assay relative to control
[8] = organism: Homo sapiens; assay: Displacement of 1,8-ANS from His6-tagged FABP4 (unknown origin) R126A mutant expressed in Escherichia coli BL21(DE3) cells at 25 uM by fluorescence assay relative to control

Structure (SMILES) | inhibition [1] [%] | ΔTm [2] [°C] | other results
CCOC(=O)c1cnc2c(ccc3ccccc32)c1Nc1cccc(C(=O)O)c1 | 18.2 | 0.2 | 
CCc1ccccc1NC(=O)C(OC(=O)c1ccccc1)C(OC(=O)c1ccccc1)C(=O)O (stereo not given) | 2.1 | 0.5 | 
Cc1oc2ccc(NS(=O)(=O)c3ccccc3)cc2c1C(=O)O | 9.5 | 0.2 | 
Cc1ccc(C(=O)C2=C(O)C(=O)N(CCCC(=O)O)C2c2ccccc2F)cc1 (stereo not given) | 17.1 | 0 | 
CCCCC/C=C\C/C=C\CCCCCCCC(=O)O |  | 1.1 | 
O=C(O)CSc1cc(NS(=O)(=O)c2ccc(Cl)cc2)c2ccccc2c1O | 70 | -2.8 | Ki [3]: 2300 nM
Cc1cc2c3c(c1)C1C=CCC1C(C(=O)O)N3CC1CC=CC21 (stereo not given) |  | 6.2 | inhibition [4]: Dose-dependent effect; Ki [3]: 380 nM; inhibition [5]: Dose-dependent effect; inhibition [6]: Dose-dependent effect
COc1ccccc1N1CCN(C(=O)c2ccccc2NC(=O)C2CCCCC2C(=O)O)CC1 (stereo not given) | -5 | 0.1 | 
CN1C(=O)/C(=N/c2cccc(C(=O)O)c2)S/C1=C\c1cccs1 | 25.8 | -0.3 | 
O=C(O)C1CCCCC1C(=O)Nc1ccccc1-c1ccccc1 (stereo not given) | 27.7 | 3.9 | 
O=C(O)COc1ccc(Br)cc1/C=C1\S/C(=N\c2ccc(Cl)cc2)NC1=O |  | -0.6 | 
COc1ccc(C2C(C(=O)c3ccc(C)cc3)=C(O)C(=O)N2CCCC(=O)O)cc1OC (stereo not given) | 16.6 | 1 | 
O=C(Nc1cc(Cl)ccc1Cl)/C(=N\Nc1ccccc1C(=O)O)C(=O)c1ccccc1 | 39.5 | 0.3 | Ki [3]: 10300 nM
Cc1ccc(C(=O)/C(=C\Nc2cc(Cl)ccc2C(=O)O)c2nnnn2-c2ccc(C)cc2)cc1 | -2.5 | -2.6 | 
COc1ccc(S(=O)(=O)Nc2ccccc2C(=O)O)c2ccccc12 | 20.3 | 1.2 | 
O=C(O)c1ccccc1C(=O)N(Cc1ccccc1)Cc1ccccc1 | 4.9 | 1 | 
CCCCCC(=O)N(CN1C(=O)c2ccccc2C1=O)c1cccc(C(=O)O)c1 | -1.9 | -0.2 | 
Cc1[nH]nc2c1C1(C(=O)N(C(C)C(=O)O)c3ccccc31)C(C#N)=C(N)O2 (stereo not given) | 6 | 0.1 | 
Cc1ccc(C(C[N+](=O)[O-])c2c(-c3ccccc3C)n[nH]c2O)cc1 (stereo not given) | 5.8 | -3.7 | 

Structure (SMILES) | inhibition [1] [%] | ΔTm [2] [°C] | other results
Cc1ccc(C)c(NC(=O)C2CCC(C)(C(=O)O)C2(C)C)c1 (stereo not given) | 0.5 | 0.1 | 
O=C(O)CCSc1nc2ccccc2n1Cc1ccccc1 | 27.9 | 2.8 | 
O=C(O)CCC(=O)Nc1ccccc1C(=O)N1CCCCCC1 | 3.4 | -0.1 | 
Cc1nc(=O)c(-c2ccccc2)c(C)n1CCCCCC(=O)O | -3.2 | 0 | 
Cc1ccc(S(=O)(=O)NC(CC(=O)O)c2ccccc2)c(C)c1 (stereo not given) | -0.3 | 0.2 | 
Cc1cc(=O)n2c3c(cc(S(=O)(=O)NCc4ccc(C(=O)O)cc4)cc13)CC2 |  | 0.8 | 
COc1ccc(Cc2c(C)[nH]c3ccc(C(=O)O)cc23)cc1 |  | 1.2 | 
CCc1c(-c2ccccc2)c(-c2ccccc2)nn1-c1ccccc1-c1cccc(OCC(=O)O)c1 |  | 10.6 | inhibition [4]: Dose-dependent effect; inhibition [5]: Dose-dependent effect; inhibition [6]: Dose-dependent effect
CC(=O)NC(Cc1ccc(O)cc1)C(=O)O (stereo not given) | -3.6 | -0.1 | 
O=C(CSc1ncccc1C(=O)O)c1ccc(O)c(O)c1 | -0.2 | -0.6 | 
CCOc1cc(/C=C2/SC(=S)N(CCC(=O)O)C2=O)ccc1O | 63.2 | -1.8 | Ki [3]: 2500 nM
COc1cccc(-c2[nH]c3ccccc3c2C2c3ccccc3C(=O)N2CCC(=O)O)c1 (stereo not given) | 6.3 | 1.1 | 
O=C(O)CC/C(=N/NC(=O)c1c[nH]c2ccccc12)c1ccccc1 | -0.8 | -0.8 | 
CCCN1C2=C(C(=O)CC(C)(C)C2)C(c2cc(Cl)ccc2OCC(=O)O)C2=C1CC(C)(C)CC2=O |  | -0.2 | 
O=C(O)c1ccc(S(=O)(=O)Nc2ccc(O)c(Sc3nc4ccccc4s3)c2)cc1 | 7.2 | 0.1 | 
O=C(O)C1C2CC=CC2c2c3c(cc4ccccc24)C2C=CCC2CN31 (stereo not given) |  | 7.5 | 
COc1ccc(-c2ccc(C#N)c(SCC(=O)NCC(=O)O)n2)cc1 |  | -0.1 | 
CN(CC(=O)O)c1ncc(-c2nnnn2-c2ccccc2)c(-c2ccccc2Cl)n1 | 0.5 | 0 | 
CCCOc1cc(S(=O)(=O)Nc2ccc(C(=O)O)cc2)ccc1Cl | 31.4 | 0.1 | Ki [3]: 4300 nM

Structure (SMILES) | inhibition [1] [%] | ΔTm [2] [°C] | other results
Cc1cc(C)c2c3c1C1C=CCC1CN3C(C(=O)O)C1CC=CC21 (stereo not given) |  | 5.8 | Ki [3]: 610 nM
Cc1oc2c(cc(NS(=O)(=O)c3ccc(Cl)cc3)c3ccccc32)c1C(=O)O | 30.2 | 2.8 | 
Cc1ccc(-n2c(SCC(=O)Nc3c(C)cccc3C)nc(O)cc2=O)cc1 | -3 | 0 | 
C=C1C(N(CCc2ccc(OC)cc2)C(=O)CCC(=O)O)CC(=O)N1c1ccccc1 (stereo not given) | 1 | -0.1 | 
CC(Sc1nc(-c2ccccc2)c(-c2ccccc2)[nH]1)C(=O)O (stereo not given) |  | 3.1 | 
O=C(O)CCC(=O)Nc1sc2c(c1C(=O)Nc1cccc3ccccc13)CCCCC2 | 0.4 | 0.2 | 
COc1ccc(CN(C(=O)COc2cc(C)ccc2C(C)C)c2ccccc2C(=O)O)cc1 | 18.5 | 0.1 | 
COc1ccccc1-c1cc(C(F)(F)F)nc(S(=O)(=O)CCCC(=O)O)n1 |  | -9.1 | 
O=C(O)C1C2CC=CC2c2cc(Cl)cc3c2N1CC1CC=CC31 (stereo not given) |  | 7.9 | Ki [3]: 690 nM
CCCCCCCC/C=C\CCCCCCCC(=O)O | 82.1 | 3.3 | inhibition [7]: 69.4%; inhibition [8]: 48.8%
O=C(O)CC(Sc1nc2sc3c(c2c(=O)[nH]1)CCCC3)C(=O)O (stereo not given) |  | 0.1 | 
CCCCCCCn1c(SCC(=O)O)nc2c1c(=O)[nH]c(=O)n2C | 13 | 2 | 
O=c1cc(O)c2c(=O)n(N(c3ccccc3)c3ccccc3)c3c(c2o1)CCCC3 | 0.9 | 0.3 | 
O=C(O)c1cccc(-c2ccc(CNC(Cc3c[nH]c4ccccc34)C(=O)O)o2)c1 (stereo not given) |  | -2.4 | 
O=C(O)C1C2CC(Sc3ccccc3[N+](=O)[O-])C(Cl)C2c2cccc3c2N1CC1CC=CC31 (stereo not given) | 60.2 | 3.5 | Ki [3]: 3100 nM
O=C(O)c1cccc2c1NC(c1ccccc1[N+](=O)[O-])C1CC(Sc3ccccc3[N+](=O)[O-])C(Cl)C21 (stereo not given) | 41.5 | -0.2 | Ki [3]: 5400 nM
O=C(O)C(Cc1ccc(O)cc1)N1C(=O)c2c(Cl)c(Cl)c(Cl)c(Cl)c2C1=O (stereo not given) | 6 | 0.5 | 
Cc1ccc(/N=C2/NC(=O)/C(=C/c3cccn3-c3cccc(C(=O)O)c3)S2)cc1C | 36.8 | -9 | Ki [3]: 3600 nM
